This data set relates to rats. Briefly: 4 hour acute inhalation toxicity in rats. The class given is in vivo. Particulars: rats dosed at 10,000 or 619 ppm vol/vol in air for 4 hours, 14 day post-dose monitoring; LC-50 estimated, interpreted as highest exposure level tested. As for the experimental part:
The 4 hour acute inhalation toxicity of Example 3 and CE2 in rats was determined by dosing animals at 10,000 or 619 ppm vol/vol in air (per Table 4) for 4 hours followed by 14 day post-dose monitoring. Based on the animal test results and the vapor concentration of the test compound, the LC-50 values were estimated. The NOEL (No Effect Level) value of CE3 was obtained from du Pont de Nemours trade literature. The 4 hr inhalation LC-50 value for CE4 was obtained from Solvay MSDS.

Consider one compound from patent publication US10662359B2, “Heat transfer fluids and methods of using same” (3M INNOVATIVE PROPERTIES COMPANY, priority 2017, dated 2020).

For `FC(=C(C(F)(F)F)C(F)(F)C(F)(F)C(F)(F)F)C(F)(C(F)(F)F)C(F)(F)F` [Example 3, 1,1,1,2,3,5,5,6,6,7,7,7-dodecafluoro-2,4-bis(trifluoromethyl)hept-3-ene], the “LC-50 (4 hr Inhalation in Rats)” value is listed as >10,000 ppmv.
